According to the CheMixHub ionic liquid set:

Assay: xn = mol fraction of the nth substance listed

CCCCCCCCCCCCCCCC[N+](C)(C)C.[Br-] + O + CO
electrical conductivity [S/m], 101 kPa
Details	293 K	298 K	303 K	308 K	313 K
x1 = 1.91e-06, x2 = 0.92	0.0025	0.0026	0.0022	0.0037	0.003
x1 = 5.74e-06, x2 = 0.92	0.0046	0.0047	0.0044	0.0063	0.0059
x1 = 9.57e-06, x2 = 0.92	0.0065	0.0067	0.0069	–	0.0088
x1 = 1.148e-05, x2 = 0.92	0.0077	0.0079	0.0083	0.0107	0.0106
x1 = 1.34e-05, x2 = 0.92	0.0087	0.009	0.0096	0.0122	0.0122
x1 = 1.531e-05, x2 = 0.92	0.0099	0.0102	0.0109	–	0.014
x1 = 1.723e-05, x2 = 0.92	0.0111	0.0114	0.0123	0.0157	0.016
x1 = 1.914e-05, x2 = 0.92	0.0121	0.0125	0.0138	0.0174	0.018
x1 = 2.871e-05, x2 = 0.92	0.0168	0.018	0.0199	0.0248	0.0261
x1 = 3.828e-05, x2 = 0.92	0.0215	0.0236	0.0263	0.0325	0.0352
x1 = 5.742e-05, x2 = 0.9199	0.0306	0.0338	0.0381	0.0467	0.0521
x1 = 7.656e-05, x2 = 0.9199	0.0391	0.0441	0.0502	0.0608	0.0687
x1 = 9.57e-05, x2 = 0.9199	0.0439	0.0508	0.0579	0.0702	–
x1 = 0.0001148, x2 = 0.9199	0.0472	0.0552	0.0632	0.0758	–
x1 = 0.000134, x2 = 0.9199	0.05	0.0585	0.0675	0.0806	–
x1 = 0.0001531, x2 = 0.9199	0.0527	0.0618	0.0719	0.0858	–
x1 = 0.0001722, x2 = 0.9198	0.0554	0.0652	0.0758	0.0904	–
x1 = 0.0001914, x2 = 0.9198	0.0582	0.0684	0.0801	0.0955	–
x1 = 0.0002105, x2 = 0.9198	0.0607	0.0715	0.0839	0.101	–
x1 = 0.0002296, x2 = 0.9198	0.0631	0.0747	0.0879	0.105	–
x1 = 0.0002488, x2 = 0.9198	0.0661	0.078	0.0917	0.11	–
x1 = 0.0002679, x2 = 0.9198	0.0688	0.0811	0.0958	0.115	–

CCCCCCCCCCCCCCCC[N+](C)(C)C.[Br-] + O=C(CO)[C@@H](O)[C@H](O)[C@@H](O)CO + O
viscosity [mPa·s], 100 kPa
Details	298.15 K	308.15 K	318.15 K
x1 = 7.21e-06, x2 = 0	0.896	0.742	0.617
x1 = 1.442e-05, x2 = 0	0.898	0.744	0.617
x1 = 2.162e-05, x2 = 0	0.9	0.745	0.617

CCCC[P+](CCCC)(CCCC)CCCC.[O-]c1cccnc1 + O=C=O
Details	viscosity [mPa·s]
293 K, 101 kPa, x2 = 0.5098	90000

CCCCCCCCCCCCCCCC[N+](C)(C)C.[Br-] + O=C[C@H](O)[C@@H](O)[C@H](O)[C@H](O)CO + O
viscosity [mPa·s], 100 kPa
Details	298.15 K	308.15 K	318.15 K
x2 = 0, x1 = 7.21e-06	0.896	0.742	0.617
x2 = 0, x1 = 1.442e-05	0.898	0.744	0.617
x2 = 0, x1 = 2.162e-05	0.9	0.745	0.617
x2 = 0.0008068, x1 = 7.2e-06	0.918	0.76	–
x2 = 0.000976, x1 = 1.44e-05	0.926	–	0.635
x2 = 0.0009851, x1 = 2.16e-05	–	0.768	0.636
x2 = 0.00106, x1 = 7.2e-06	–	–	0.636
x2 = 0.001255, x1 = 2.16e-05	–	0.774	0.641
x2 = 0.001314, x1 = 1.44e-05	–	0.774	–
x2 = 0.001569, x1 = 7.2e-06	0.939	0.777	0.645
x2 = 0.001577, x1 = 2.159e-05	0.946	0.782	0.647
x2 = 0.001582, x1 = 1.439e-05	0.943	–	0.647
x2 = 0.001962, x1 = 7.19e-06	0.949	–	–
x2 = 0.001965, x1 = 2.158e-05	0.957	0.791	0.655
x2 = 0.00197, x1 = 1.439e-05	0.955	–	0.654
x2 = 0.002321, x1 = 7.19e-06	–	0.793	0.659
x2 = 0.00235, x1 = 1.438e-05	–	0.798	–
x2 = 0.002365, x1 = 2.157e-05	0.968	0.8	0.662
x2 = 0.002661, x1 = 1.438e-05	0.974	0.805	0.667
x2 = 0.002693, x1 = 2.157e-05	0.978	0.808	0.669
x2 = 0.0027, x1 = 7.19e-06	0.969	0.802	–

C1CN=C2CCCN2C1 + O=S(=O)([N-]S(=O)(=O)C(F)(F)F)C(F)(F)F.[Li+]
101 kPa, frequency 0 MHz, x1 = 0.8
Details	electrical conductivity [S/m]
338.15 K	0.0385
368.15 K	0.152

101 kPa, x1 = 0.8
Details	viscosity [mPa·s]
338.15 K	236
368.15 K	37.77

CCCC[P+](c1ccccc1)(c1ccccc1)c1ccccc1.[Br-] + O=S=O + OCCO
100 kPa
Details	viscosity [mPa·s]
303.15 K, x2 = 0.01371, x3 = 0.9622	22
313.15 K, x2 = 0.01059, x3 = 0.9653	18.4
323.15 K, x2 = 0.008625, x3 = 0.9672	15.5
333.15 K, x2 = 0.007346, x3 = 0.9684	12.9
343.15 K, x2 = 0.005964, x3 = 0.9698	11.5
